Where “and” joins values, the source holds several entries; their conditions need not be identical. Equal entries are not always repeated. Where two headings read alike, the source gives them in different places.
What was measured:
[1] = tested on: H2122 xenograft; assay: Anti-tumor growth activity, lung cancer H2122 xenograft mouse model; assay type: in vivo; settings: for Tumor Growth Inhibition (%) or Regression (−%): H2122 Lung
Method: To evaluate in vivo target inhibition and anti-tumor efficacy of a compound, Human lung cancer cells, H358 or H2122 are implanted into nude mice xenograft tumor models. Either H358 or H2122 cells (10×10^6 in a 1:1 Matrigel® mix, 0.2 mL total volume) are implanted by subcutaneous injection in hind leg of nude female mice (Harlan Laboratories). A total of 5 mice each group are used for efficacy study, and a total of 3-4 mice each group are used for target engagement and PD study. Treatment is initiated with oral administration (gavage) of a test compound or vehicle (20% Captisol®, 25 mM phosphate, pH 2.0 in 0.2 mL volume when the tumor size reaches approximately […]. Tumor growth and body weight are monitored over time to evaluate efficacy and signs of toxicity. Bidimensional measurements of tumors are performed twice a week and tumor volumes are calculated based on mid-axis length and mid-axis width. Tumor volume data are transformed to a log scale to equalize variance across time and treatment groups. The log volume data are analyzed with a two-way repeated measures analysis of variance by time and treatment using the mixed procedures in SAS software (version 8.2). The correlation model for the repeated measures is spatial power. Treated groups are compared to the control group at each time point. The mixed procedure is also used separately for each treatment group to calculate adjusted means and standard errors at each time point. Both analyses account for the autocorrelation within each animal. The adjusted means and standard errors are plotted for each treatment group versus time.
H2122 lung tumor cells (10×10^6) are implanted by subcutaneous injection in hind leg of nude female mice (Taconic Biosciences). A total of 5 mice each group are used for efficacy study.

[2] = biological target: T1, constitutive RAS GTPAse activity in H358 cells (Homo sapiens, UniProt P01116, G12C); assay: H358 Cellular Active RAS GTPase ELISA; assay type: cell-based; settings: 2 hr
T1 construct: host or cells: H358 human lung cancer cells
Excerpt: This assay is used to measure the ability of test compounds to inhibit constitutive RAS GTPAse activity in human lung cancer cells H358 (ATCC CRL-5807). The RAS GTPase ELISA kit (Active Motif Cat #52097) contains a 96-well plate pre-coated with glutathione in order to capture a kit-supplied GST-Raf-RBD protein. Activated RAS (GTP-bound) in cell extracts specifically bind to the Raf-RBD. Bound RAS is detected with a primary antibody that recognizes human KRas. A secondary antibody conjugated with HRP recognizes the primary antibody and a development solution provides a chemiluminescent readout.
H358 cells are plated at 80,000 cells/well in 90 μL serum free media (RPMI 1640, GIBCO) and incubated overnight at 37° C./5% CO2. The next morning, 10 μL of serially-diluted (3-fold) test compounds (500 μM top concentration) and 10 μL of controls (Maximum signal wells: 5% DMSO and Minimum signal wells: 500 μM LSN3429410 as an inhibitor) are added to the cell plate and incubated for 2 hr at 37° C./5% CO2. Complete Lysis/Binding Buffer is prepared containing Protease Inhibitor cocktail and GST-Raf-RBD and stored on ice. One hour before cell plate incubation is completed, 50 μL of GST-Raf-RBD is diluted in lysis/binding buffer, and buffer is added to the ELISA assay plate and which is incubated for 1 hour at 4° C. with gently rocking. After 2 hr, the cells are washed with 100 μL ice-cold PBS and lysed with 100 μL lysis/binding buffer. The cell plate is shaken for 10 min at RT. The cell plate is then centrifuged at 1500 rpm for 10 min at RT. During this time, 1× Wash Buffer is prepared at RT and then is used to wash (3×100 μL) the GST-Raf-RBD coated assay plate. After washing, 50 μL of cell lysate is added to the GST-Raf-RBD coated assay plate and incubated for 1 hour at RT with gentle shaking. During this incubation period, 1× Antibody Binding Buffer is prepared and brought to RT. The assay plate is washed 3×100 μL with 1× Wash Buffer and then 50 μL of Primary Antibody (diluted 1:500 in 1× Antibody Binding buffer) is added. The plate is incubated for 1 hour at RT. The assay plate is washed 3×100 μl with 1× Wash Buffer and then 50 μL of Secondary Antibody (diluted 1:5000 in 1× Antibody Binding buffer) is added and incubated for 1 hour at RT. The assay plate is washed 4×100 μL with 1× Wash buffer and then 50 μL of chemiluminescent working solution is added at RT. The assay plate is then read on an EnVision™ Plate Reader (Perkin Elmer) using a luminescence program.
The signal is converted to percent inhibition using the following equation: % Inhibition=100−[(Test Compound Signal−Median Minimum Signal)/(Median Maximum Signal−Median Minimum Signal)×100]. The Maximum signal is a control well without inhibitor.

[3] = tested on: SW1573; assay: CellTiterGlo Cell Proliferation Assay, SW1573; assay type: cell-based; settings: Homo sapiens, KRas G12C, Lung, 96 hr, read-out: IC50 (μM) in 2 D cell proliferation
Method: (§1) A panel of tumor cell lines harboring KRas G12C or other KRas mutations are collected (Table 6). All cell lines are from ATCC or other sources indicated.
(§2) Typically cells are cultured in RPMI1640 or Dulbecco's modified Eagle's medium (DMEM, GIBCO) supplemented with 10% FBS (GIBCO, Invitrogen). For 2D culture cells (4×10^3/well) maintained in growth medium described above, are plated onto 96 well tissue culture plates Corning® Cat. 3603) a day before the treatment. For 3D culture 8000 cells/well are seeded onto 96 well ultra-low attachment tissue culture plates (Corning, #3474). The cells are treated compound for 96 hr, and then are analyzed for viability using the CellTiterGlo® Luminescent Cell Viability Assay® (Promega #G7572 for 2D and Promega #G9683 for 3D cultures) according to manufacturer's instructions and an EnVision™ plate reader. Nonlinear regression and sigmoidal dose-response curves are used to calculate the half maximal inhibitory concentration (IC50) with GraphPad Prism 4® software.

[4] = tested on: H2122; assay: CellTiterGlo Cell Proliferation Assay, H2122; assay type: cell-based; settings: Homo sapiens, NCI-H2122, KRas G12C, Lung, 96 hr
Method: as §1, §2

[5] = tested on: MiaPaca-2 xenograft; assay: Anti-tumor growth activity, MiaPaca-2 pancreatic xenograft; assay type: in vivo; settings: for Tumor Growth Inhibition (%) or Regression (−%): 28 Day, negative = regression

T1 sequence (P01116 1-188 isoform P01116-2 G12C): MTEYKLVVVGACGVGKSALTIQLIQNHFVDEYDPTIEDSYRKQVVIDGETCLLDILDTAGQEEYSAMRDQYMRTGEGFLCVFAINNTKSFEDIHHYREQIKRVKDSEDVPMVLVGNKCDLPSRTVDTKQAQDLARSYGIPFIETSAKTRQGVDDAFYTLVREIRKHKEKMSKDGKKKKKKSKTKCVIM

C=CC(=O)N1CCN(c2ncnc3c(F)c(-c4ccc(F)c5sc(N)nc45)c(Cl)cc23)CC1 [Example 1, 1-{4-[7-(2-Amino-7-fluoro-1,3-benzothiazol-4-yl)-6-chloro-8-fluoroquinazolin-4-yl]piperazin-1-yl}prop-2-en-1-one]
Tumor Growth Inhibition (%) or Regression (−%) ([1]; 30 mg/kg BID, 28 Day, oral, negative = regression): 72.97%
Tumor Growth Inhibition (%) or Regression (−%) ([1]; 30 mg/kg QD, 28 Day, oral, negative = regression, 30 mg/kg): 77.17% and 77.2%
Tumor Growth Inhibition (%) or Regression (−%) ([1]; 100 mg/kg QD, 28 Day, oral, negative = regression, 100 mg/kg): 91.06% and 91.1%
Tumor Growth Inhibition (%) or Regression (−%) ([1]; Example 1 30 mg/kg QDx28): 77.2
Tumor Growth Inhibition (%) or Regression (−%) ([1]; Example 1 100 mg/kg QDx28): −1.4
animal body weight loss ([1]; H2122 xenograft mice, 30 mg/kg once or twice daily or 100 mg/kg once daily for 28 days, oral): No significant animal body weight loss was observed
IC50 ([2]; read-out: RAS-GTP): 37.1 nM
IC50 ([2]; read-out: relative IC50): 37 nM
IC50 [3]: 16.7 µM
IC50 ([4]; read-out: IC50 (μM) in 2 D cell proliferation): 0.187 µM
IC50 ([4]; read-out: IC50 (μM) in 3 D spheroid cell proliferation): 0.017 µM
Tumor Growth Inhibition (%) or Regression (−%) ([5]; 10 mg/kg BID): 75.48%
Tumor Growth Inhibition (%) or Regression (−%) ([5]; 10 mg/kg QD): 44.4%
Tumor Growth Inhibition (%) or Regression (−%) ([5]; 30 mg/kg BID): −49.6%
Tumor Growth Inhibition (%) or Regression (−%) ([5]; 30 mg/kg QD): 95.6%
In Vivo Anti-Tumor Activities ([5]; Example 1 30 mg/kg QDx28): 91.22

Source: patent US10968214B2, “KRas G12C inhibitors” (Eli Lilly and Company, priority 2018, dated 2021)
